We go through eleven substances from US5470950A, “Biologically active amphiphilic peptide compositions and uses therefor” (Magainin Pharmaceuticals Inc., priority 1994, dated 1995).

Holding throughout (assay): Antibacterial MIC assay (NCCLS M7-T2 microtiter broth dilution)
Assay type in all cases: cell-based

Test [1] concerns S. aureus strain ATCC 25923. The following applies: S. aureus ATCC 25923; Mueller Hinton broth, 16-20 hours at 37° C.; lowest concentration giving a clear well. An excerpt: (§1) Table I, which follows, indicates the Minimal Inhibitory Concentration (MIC) in μg/ml of Peptides (SEQ ID NO:1) through (SEQ ID NO:3), (SEQ ID NO:5), (SEQ ID NO:6), (SEQ ID NO:9) through (SEQ ID NO:11), and (SEQ ID NO:17) against S.aureus strain ATCC 25923, P. aeruginosa strain ATCC 27853, and E.coli ATCC strain 25922. The procedure for the antibacterial assay is based upon the guidelines of the National Committee for Clinical Laboratory Standards, Document M7-T2, Volume 8, No. 8, 1988. Stock solutions of peptides (SEQ ID NO: 1) through (SEQ ID NO:3), (SEQ ID NO:5), (SEQ ID NO:S), (SEQ ID NO:9) through (SEQ ID NO:12), and […] in accordance with the present invention are prepared at a concentration of 512 μg/ml in sterile deionized distilled water and stored at -70° C. Each peptide is a C-terminal amide and may or may not be acetylated at the N-Terminus. An acetyl group at the N-terminus is indicated by an X. The stock peptide solution is diluted in serial dilutions (1:2) down the wells of a microtiter plate so that the final concentrations of peptides in the wells are 0.25, 0.50, i, 2,4, 8, 16, 32, 64, 128, and 256 μg/ml. 1-5×10^5 CFUs/ml of either S. aureus ATCC 25923, E. coli ATCC 25922, or P. aeruginosa ATCC 27853 were added to the wells in full strength Mueller Hinton broth (BBL 11443) from a mid-log culture. The inoculum is standardized spectrophotometrically at 600 nm and is verified by colony counts. The plates are incubated for 16-20 hours at 37° C., and the minimal inhibitory concentration (MIC) for each peptide is determined. Minimal inhibitory concentration is defined as the lowest concentration of peptide which produces a clear well in the microtiter plate. The minimal inhibitory concentration of each of (SEQ ID NO:1) through (SEQ ID NO:3), (SEQ ID NO:5), (SEQ ID NO:6), (SEQ ID NO:9) through (SEQ ID NO:11), and (SEQ ID NO:17) is given in Table I below.

The next test deals with E.coli ATCC strain 25922. The following applies: E. coli ATCC 25922; Mueller Hinton broth, 16-20 hours at 37° C.; lowest concentration giving a clear well.
Description: as §1

The subject of test [2] is P. aeruginosa strain ATCC 27853. The following applies: P. aeruginosa ATCC 27853; Mueller Hinton broth, 16-20 hours at 37° C.; lowest concentration giving a clear well.
Description: as §1

Ends that are not written are not given here. Bounds are passed on as bounds.

As for “Ac-KKLLKKLKKLLKKLRR-NH2 [X-(SEQ ID NO: 5)-NH2]”, the “Minimal Inhibitory Concentration S. aureus” value in test [1] is 4 µg/mL. Also, in the test on E.coli ATCC strain 25922, the “Minimal Inhibitory Concentration E. coli” value turned out to be 32 µg/mL. In addition, the “Minimal Inhibitory Concentration P. aeruginosa” value in test [2] is 8 µg/mL.

Turning to “Ac-KLLKKLKKLLKLL-NH2 [X-(SEQ ID NO: 3)-NH2]”, in test [1], the “Minimal Inhibitory Concentration S. aureus” value came out at 64 µg/mL. The “Minimal Inhibitory Concentration E. coli” value with E.coli ATCC strain 25922 was 8,16 μg/ml. Moreover, the “Minimal Inhibitory Concentration P. aeruginosa” value in test [2] is 16 µg/mL.

In the case of “Ac-LKKLKKLLKLL-NH2 [X-(SEQ ID NO: 1)-NH2]”, the “Minimal Inhibitory Concentration S. aureus” value in test [1] was found to be 16 µg/mL. In the test with E.coli ATCC strain 25922, the “Minimal Inhibitory Concentration E. coli” value is 4 µg/mL. The “Minimal Inhibitory Concentration P. aeruginosa” value in test [2] is 4,8 μg/ml.

Turning to “Ac-LKKLLKKLKKL-NH2 [X-(SEQ ID NO: 17)-NH2]”, in test [1], the “Minimal Inhibitory Concentration S. aureus” value stood at 256 µg/mL. For the same substance, the “Minimal Inhibitory Concentration E. coli” value in the test with E.coli ATCC strain 25922 was 32,64 μg/ml. In addition, the “Minimal Inhibitory Concentration P. aeruginosa” value in test [2] is listed as 8,16 μg/ml.

In the case of “Ac-LKLLKKLLKKNKKLLKKL-NH2 [X-(SEQ ID NO: 9)-NH2]”, the “Minimal Inhibitory Concentration S. aureus” value in test [1] is 16 µg/mL. Further, the “Minimal Inhibitory Concentration E. coli” value with E.coli ATCC strain 25922 is 64 µg/mL. Further, the “Minimal Inhibitory Concentration P. aeruginosa” value in test [2] was 8 µg/mL.

Take “Ac-LKLLKKLLKKPKKLLKKL-NH2 [X-(SEQ ID NO: 10)-NH2]”: the “Minimal Inhibitory Concentration S. aureus” value in test [1] is 16,32 μg/ml. The “Minimal Inhibitory Concentration E. coli” value in the test with E.coli ATCC strain 25922 came to 64 µg/mL. The “Minimal Inhibitory Concentration P. aeruginosa” value in test [2] stood at 16 µg/mL.

Regarding “Ac-LLKKLKKLLKLL-NH2 [X-(SEQ ID NO: 2)-NH2]”, the “Minimal Inhibitory Concentration S. aureus” value in test [1] was 16 µg/mL. In the test on E.coli ATCC strain 25922, the “Minimal Inhibitory Concentration E. coli” value was 8,16 μg/ml. The “Minimal Inhibitory Concentration P. aeruginosa” value in test [2] was found to be 16 µg/mL.

Turning to KLLKKLKKLLKLL-NH2 [(SEQ ID NO.:3)-NH2], the “Minimal Inhibitory Concentration S. aureus” value in test [1] turned out to be 64 µg/mL. Besides, the “Minimal Inhibitory Concentration P. aeruginosa” value in test [2] turned out to be 16 µg/mL.

Consider LKKLKKLLKLL-NH2 [(SEQ ID NO.: 1)-NH2], for which the “Minimal Inhibitory Concentration S. aureus” value in test [1] is on record as 64,128 μg/ml. Also, the “Minimal Inhibitory Concentration E. coli” value in the test with E.coli ATCC strain 25922 was 8,16 μg/ml. Further, in test [2], the “Minimal Inhibitory Concentration P. aeruginosa” value is 8,16 μg/ml.

As for LKKLLKKLKKL-NH2 [(SEQ ID NO: 17)-NH2], the “Minimal Inhibitory Concentration S. aureus” value in test [1] is above 256 µg/mL. The “Minimal Inhibitory Concentration E. coli” value in the test on E.coli ATCC strain 25922 is given as 64,128 μg/ml. The “Minimal Inhibitory Concentration P. aeruginosa” value in test [2] is 32,64 μg/ml.

For LLKKLKKLLKLL-NH2 [(SEQ ID NO.:2)-NH2], the “Minimal Inhibitory Concentration S. aureus” value in test [1] worked out at 16 µg/mL. Also, in the test with E.coli ATCC strain 25922, the “Minimal Inhibitory Concentration E. coli” value is 8,16 μg/ml. The “Minimal Inhibitory Concentration P. aeruginosa” value in test [2] came out at 16 µg/mL.
